Where “and” joins values, the source holds several entries; their conditions need not be identical. Identical values can stand only once.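 Assay format: 96-well plates, 48-hour exposure. Here, GI50 denotes the concentration required for 50% inhibition of growth. TGI denotes the concentration required for complete inhibition of growth.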
Legend:
Test in all cases: growth of human tumour cells (NCI), 48 h
HT29 colon = system: HT29 colon
DU-145 prostate = system: DU-145 prostate
KM12 colon = system: KM12 colon
TK-10 renal = system: TK-10 renal
CAKI-1 renal = system: CAKI-1 renal
OVCAR-3 ovarian = system: OVCAR-3 ovarian
UACC-257 melanoma = system: UACC-257 melanoma
RPMI-8226 leukemia = system: RPMI-8226 leukemia
MALME-3M melanoma = system: MALME-3M melanoma
NCI-H23 lung = system: NCI-H23 lung

Compound	TGI (HT29 colon)	TGI (DU-145 prostate)	TGI (KM12 colon)	TGI (TK-10 renal) [µM]	TGI (CAKI-1 renal) [µM]	TGI (OVCAR-3 ovarian) [µM]	TGI (UACC-257 melanoma) [µM]	TGI (RPMI-8226 leukemia) [µM]	TGI (MALME-3M melanoma) [µM]	TGI (NCI-H23 lung) [µM]	GI50 (MALME-3M melanoma) [µM]	GI50 (HT29 colon) [µM]	GI50 (DU-145 prostate) [µM]	GI50 (KM12 colon) [µM]	GI50 (TK-10 renal) [µM]	GI50 (OVCAR-3 ovarian) [µM]	GI50 (UACC-257 melanoma) [µM]	GI50 (RPMI-8226 leukemia) [µM]
Cc1ccc2nc(Cl)c(/C=N/N3C(=O)/C(=C/c4ccc(N(C)C)cc4)N=C3c3ccccc3)cc2c1	> 100 µM	> 100 µM	> 100 µM	> 100	> 100	44.9	> 100	65.3	–	–	–	–	–	–	–	–	–	–
CC[C@@H]1CC[C@@H]2[C@H](CC[C@]3(C)[C@@H](OS(=O)(=O)c4ccc(C)cc4)CC[C@@H]23)[C@H]1CO	> 100 µM	> 100 µM	> 100 µM	> 100	> 100	> 100	> 100	> 100	> 100	> 100	–	–	–	–	–	–	–	–
CC1(C)[C@@H]2C[C@H]1C(Cc1cccc(C[C@H]3c4cc(-c5ccccn5)ncc4[C@H]4C[C@@H]3C4(C)C)c1)c1cc(-c3ccccn3)ncc12 (stereo partly drawn)	> 100 µM	> 100 µM	> 76.9 µM	> 100	> 100	37.2	> 42.4	32.1	44.9	> 63.9	3.65	–	–	–	–	–	–	–
O=C(OCc1ccccc1)N1c2cc([N+](=O)[O-])ccc2C(=O)N2CCC[C@H]2C1O (stereo partly drawn)	> 100 µM	> 100 µM	> 100 µM	> 100	> 100	> 100	> 100	> 100	–	> 100	–	–	–	–	–	–	–	–
OCC(O)C(O)C(O)C(/C=N\Nc1ncnc2ccc(Br)cc12)=N/Nc1ncnc2ccc(Br)cc12 (stereo not drawn)	> 100 µM	> 100 µM	> 100 µM	> 100	> 100	> 100	> 100	> 100	57	–	–	–	–	–	–	–	–	–
CC1CCC2(CC1)N=C1CCC(C)CC1C1(CCC(C)CC1)N2 (stereo not drawn)	> 100 µM	> 100 µM	> 100 µM	> 100	> 100	> 100	> 100	> 100	> 100	> 100	–	–	–	–	–	–	–	–
C#CCOC(=O)C(N)CCCN=C(N)N (stereo not drawn)	> 100 µM	> 100 µM	> 100 µM	> 100	> 100	–	> 100	> 100	> 100	> 100	–	–	–	–	–	–	–	–
O=c1[nH]c2ccccc2c2oc(-c3ccccc3)nc12	> 100 µM	–	> 100 µM	> 100	34.4	> 100	> 100	70	> 100	> 100	–	–	–	–	–	–	–	–
COc1nc2[nH]ccc2c(=O)n1C	> 100 µM	–	> 100 µM	> 100	57.6	–	> 100	> 100	> 100	> 100	–	–	–	–	–	–	–	–
COc1cc(-c2nc3nc(N4CCN(C)CC4)ccc3[nH]2)c(OC)c2[nH]c(COC(C)=O)nc12	61.8 µM	> 100 µM	83.3 µM	> 100	> 100	–	61.4	–	67.9	> 100	–	–	–	–	–	–	–	–
c1ccc(Nc2nnc(-c3nsc4ccccc34)o2)cc1	> 100 µM	–	> 100 µM	> 100	–	45.2	> 100	> 100	–	> 100	–	–	–	–	–	–	–	–
CN(C)CC(NC(NCS)C(=O)NCCNc1ccc(NCCNC(=O)C(NCS)NC(CN(C)C)OCCl)c2c1C(=O)c1c(O)ccc(O)c1C2=O)OCCl (stereo not drawn)	0.278 µM and 1.58 µM	0.977 µM and 0.287 µM	1.53 µM and 1.84 µM	2.44	0.119	–	3.6	0.03	–	0.111	–	0.228	0.0162	0.211	0.34	1.36	–	–
CC(C)CCC[C@@H](C)[C@H]1CCC2C3=CCC4C(=O)C=CC(=O)C4C3CC[C@@]21C (stereo partly drawn)	> 100 µM	> 100 µM	> 100 µM	> 100	–	–	–	–	2	–	0.399	0.839	0.507	0.338	2.65	0.348	0.372	0.11
CC(C)CCC/C(CBr)=C(\Cl)CCl	5.97 µM	17.2 µM	5.51 µM	3.72	9.35	6.73	4.78	–	7.88	8.11	–	–	–	–	–	–	–	–
CCOC(=O)C(C)c1nc2cc(N3CCN(C)CC3)c(F)cc2[nH]c1=O (stereo not drawn)	> 100 µM	> 100 µM	> 100 µM	–	> 100	> 100	> 100	> 100	> 100	> 100	–	–	–	–	–	–	–	–
COC1/C=C/C(C)C(C(C)C(OC)C(C)CCC(=O)C(C)C(C/C=C/N(C)C=O)OC)OC(=O)/C=C/C=C(\C)CC(OC)C(OC)C2=CC(=O)O[C@@H](C(C)C(OC)CC(OC)/C=C/C(C)C(O)C1)[C@H]2O (stereo partly drawn)	2.15 µM	–	3.02 µM	0.166	–	0.277	0.338	–	0.493	0.373	–	–	–	–	–	–	–	–
O=C(O)C1SCCS1	> 100 µM	> 100 µM	–	> 100	–	> 100	> 100	> 100	> 100	> 100	–	–	–	–	–	–	–	–
COC(=O)CCN(CCC(=O)OC)C1CC1	> 100 µM	> 100 µM	> 100 µM	> 100	–	–	> 100	> 100	> 100	> 100	–	–	–	–	–	–	–	–
COc1cc(C2S/C(=C/c3ccccc3)C(=O)N2c2cccc([N+](=O)[O-])c2)cc(OC)c1OC (stereo not drawn)	> 100 µM	–	> 100 µM	> 100	> 100	–	> 100	–	> 100	> 100	–	–	–	–	–	–	–	–
Cc1cc([N+](=O)[O-])ccc1N=NC(=O)NNc1ccc([N+](=O)[O-])cc1C	45.6 µM	30.1 µM	–	31.5	29.3	34.4	39.4	55.2	37	41.8	–	–	–	–	–	–	–	–
NC(=O)NCCCC(NC(=O)OCCCCCn1ccc(=O)[nH]c1=O)C(=O)O (stereo not drawn)	> 100 µM	> 100 µM	> 100 µM	> 100	> 100	> 100	> 100	> 100	–	> 100	–	–	–	–	–	–	–	–
COC(=O)c1cccc(C(=O)OC)c1	> 100 µM	–	> 100 µM	> 100	> 100	–	> 100	> 100	> 100	> 100	–	–	–	–	–	–	–	–
